Reference: US12071411B2, “Inhibitors of HIF-2α and methods of use thereof” (ARCUS BIOSCIENCES, INC., priority 2021, dated 2024)

Legend:
HIF-2α [1] = target: T1, HIF-2α (Homo sapiens, UniProt Q99814); assay: HIF-2α Luciferase Reporter Assay (serum free) in HIF-Luc-786-0 cells; assay type: cell-based; details: Opti-MEM, 786-0 reporter cells, 20 hours incubation
Protocol: (§1) Generation of HIF-2α Luciferase 786-0 Cell Line:
(§2) Stable cell lines were generated by transducing 786-0 cells (ATCC, CRL-1932) with Cignal Lenti HIF Luc Reporter lentivirus (CLS-007L, Qiagen) according to the manufacturer's guidelines. In brief, 0.3×10^6 786-0 cells were transduced with lentivirus at a multiplicity of infection (MOI) of 25 for 24 hours. After transduction, cells were replenished with fresh RPMI 1640 Medium (Cat. No. 11875085, Thermo Fisher) supplemented with 10% FBS (Cat. No. A3160502, Gibco), 2 mM GlutaMAX™ (Cat. No. 35050-061, Invitrogen) and 100 units of penicillin and 100 μg of streptomycin/mL (Cat. No 15070063, Thermo Fisher) for another 24 hours. Antibiotic selection was performed in cell media containing 4 μg/mL of puromycin. After 7 days of antibiotic selection, stable pools of surviving cells were expanded and used in a luciferase reporter assay.
HIF-2α Luciferase Reporter Assay (Serum Free):
On day one, 20 uL of HIF-Luc-786-0 cells in Opti-MEM™ (Cat. No. 31985088, Thermo Fisher) were seeded into each well of a 384 well white opaque plate (Corning 3570) and incubated at 37° C. and 5% CO2. Twenty microliters of 2× test compounds in Opti-MEM™ were added to cells after 4 hours of incubation. Final assay conditions comprised 20,000 cells per well in 1% DMSO with test compound concentrations ranging from 50 uM to 0 uM. After 20 hours incubation at 37° C. and 5% CO2, luciferase activity was determined using ONE-Glo™ Luciferase Assay Reagent (E6110, Promega) following the manufacture's recommended procedure. Briefly, 40 uL of ONE-Glo™ luciferase reagents were added to each well and luciferase signals were measured using an Envision 2102 Multilabel Reader. Percentage maximum activity in each test well was calculated based on DMSO (maximum activity) and no cell control wells (baseline activity). The IC50 values of the test compounds were determined from compound dose response curves fitted using a standard four parameter fit equation.

HIF-2α [2] = target: T1, HIF-2α; assay: HIF-2α Luciferase Reporter Assay (serum), HRE-luciferase 786-0 cells in 100% human serum; assay type: cell-based; details: for IC50: 100% human serum, 786-0 reporter cells, overnight incubation, read-out: Serum Potency; for Serum Shift (approximate): ratio of IC50 in 100% serum to IC50 in serum free conditions
Protocol: as §1, §2
HIF-2α Luciferase Reporter Assay (Serum):
An HRE-luciferase stable reporter 786-0 cell line was maintained in active culture using RPMI 1640 (GIBCO) media supplemented with 1% penicillin-streptomycin, 1% GlutaMAX™, 10% FBS-One Shot (GIBCO) and 4 ug/ml of puromycin (Invitrogen). On the day of the assay, cells were harvested using StemPro™ Accutase™ cell dissociation reagent (GIBCO) and resuspended at 1.5 million cells per milliliter in Opti-MEM™ (GIBCO). 20 ul/well of the resuspended cells were dispensed into a 384 white tissue culture-treated microplate (Corning) and allowed to incubate at 37° C., 5% CO2 for 3 hours. Compounds were prepared by dispensing 0.8 ul of compound in 100% DMSO into a Greiner plate containing 40 ul/well of 100% human serum (Bioreclamation IVT). After 3 hours, media was removed via centrifugation at 500 RPM for 30 seconds and 30 ul/well of compound diluted in human serum was added. The plate was incubated overnight at 37° C., 5% CO2. The following day, ONE-Glo™ was prepared per vendors instructions. The cell plate was removed from the incubator and the human serum was removed from the plate using centrifugation at 500 RPM for 30 seconds. Following the removal of human serum, 40 ul/well of room temperature Opti-MEM™ was added to the plate and allowed to equilibrate to room temperature for 2 hours. 40 ul/well of ONE-Glo™ reagent was added and allowed to incubate for 10 minutes before reading the luminescence signal on the Envision (PerkinElmer). Data was analyzed using 4-parameter logistic equation to generate IC50.

T1 sequence (Q99814 whole entry): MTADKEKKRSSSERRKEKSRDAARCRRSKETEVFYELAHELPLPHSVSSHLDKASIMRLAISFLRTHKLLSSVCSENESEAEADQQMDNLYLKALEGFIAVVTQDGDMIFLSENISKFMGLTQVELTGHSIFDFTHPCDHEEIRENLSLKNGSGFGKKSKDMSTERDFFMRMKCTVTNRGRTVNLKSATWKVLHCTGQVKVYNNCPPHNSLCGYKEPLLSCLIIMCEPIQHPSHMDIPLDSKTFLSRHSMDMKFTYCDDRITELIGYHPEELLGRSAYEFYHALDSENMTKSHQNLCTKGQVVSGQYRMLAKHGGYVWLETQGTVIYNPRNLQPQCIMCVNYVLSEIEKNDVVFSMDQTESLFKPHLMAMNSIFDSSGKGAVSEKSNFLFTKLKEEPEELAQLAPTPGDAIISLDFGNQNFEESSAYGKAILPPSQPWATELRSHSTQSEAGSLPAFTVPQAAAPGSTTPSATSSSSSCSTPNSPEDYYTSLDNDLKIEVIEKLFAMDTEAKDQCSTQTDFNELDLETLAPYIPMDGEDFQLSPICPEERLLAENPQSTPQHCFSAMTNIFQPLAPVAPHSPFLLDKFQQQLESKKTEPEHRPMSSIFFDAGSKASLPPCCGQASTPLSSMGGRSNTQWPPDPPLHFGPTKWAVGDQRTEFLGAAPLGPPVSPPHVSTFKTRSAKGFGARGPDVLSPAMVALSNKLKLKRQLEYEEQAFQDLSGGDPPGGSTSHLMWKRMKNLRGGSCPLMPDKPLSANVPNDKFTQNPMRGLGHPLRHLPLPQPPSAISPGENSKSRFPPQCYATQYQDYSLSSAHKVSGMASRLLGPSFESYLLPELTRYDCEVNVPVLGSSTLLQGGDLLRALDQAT

Structure (SMILES)	IC50 (HIF-2α [1]) [nM]	IC50 (HIF-2α [2]) [nM]	Serum Shift (approximate) (HIF-2α [2])
O[C@H]1c2c(C(F)(F)F)nn([C@H]3CC[C@H](OC(F)F)C3)c2CC1(F)F (racemic) [Example 110, (4S)-1-[(1R,3R)-3-(difluoromethoxy)cyclopentyl]-5,5-difluoro-3-(trifluoromethyl)-1H,4H,5H,6H-cyclopenta[c]pyrazol-4-ol and (4S)-1-[(1S,3S)-3-(difluoromethoxy)cyclopentyl]-5,5-difluoro-3-(trifluoromethyl)-1H,4H,5H,6H-cyclopenta[c]pyrazol-4-ol]	< 100	> 1000	225
CO[C@H]1C[C@H](n2nc(C(F)(F)F)c3c2CC(F)(F)[C@H]3O)CCC1(F)F (racemic) [Example 111, (4S)-1-[(1R,3S)-4,4-difluoro-3-methoxycyclohexyl]-5,5-difluoro-3-(trifluoromethyl)-1H,4H,5H,6H-cyclopenta[c]pyrazol-4-ol and (4S)-1-[(1S,3R)-4,4-difluoro-3-methoxycyclohexyl]-5,5-difluoro-3-(trifluoromethyl)-1H,4H,5H,6H-cyclopenta[c]pyrazol-4-ol]	< 100	> 1000	9
O[C@H]1c2c(C(F)(F)F)nn([C@@H]3CCC[C@H](OC(F)F)C3)c2CC1(F)F (racemic) [Example 112, (4S)-1-[(1R,3S)-3-(difluoromethoxy)cyclohexyl]-5,5-difluoro-3-(trifluoromethyl)-1H,4H,5H,6H-cyclopenta[c]pyrazol-4-ol and (4S)-1-[(1S,3R)-3-(difluoromethoxy)cyclohexyl]-5,5-difluoro-3-(trifluoromethyl)-1H,4H,5H,6H-cyclopenta[c]pyrazol-4-ol]	< 100	> 1000	17
O[C@H]1c2c(C(F)(F)F)nn(C[C@H](F)C3CC3)c2CCC1(F)F (single isomer, unassigned) [26/27 DIAST-2]	100 to 1000	> 1000	10
O[C@H]1c2c(C(F)(F)F)nn([C@@H]3CC[C@@H](F)[C@@H](F)C3)c2CC1(F)F (single isomer, unassigned) [72/73 DIAST-1]	< 100	100 to 1000	8
O[C@H]1c2c(C(F)(F)F)nn(C3CC[C@H](F)[C@H](F)C3)c2CC1(F)F (single isomer, unassigned) [72/73 DIAST-2]	< 100	100 to 1000	3
O[C@H]1c2c(C(F)(F)F)nn([C@H]3CCO[C@@H](C(F)(F)F)C3)c2CC1(F)F (single isomer, unassigned) [94/95 DIAST-1]	< 100	> 1000	17
O[C@H]1c2c(C(F)(F)F)nn(C3CCO[C@H](C(F)(F)F)C3)c2CC1(F)F (single isomer, unassigned) [94/95 DIAST-2]	< 100	> 1000	23
O[C@H]1c2c(C(F)(F)F)nn([C@@H]3CC[C@@H](F)C[C@H]3F)c2CC1(F)F (single isomer, unassigned) [97/98 DIAST-1]	100 to 1000	> 1000	23
O[C@H]1c2c(C(F)(F)F)nn([C@H]3C[C@@H]4[C@H](C3)C4(F)F)c2CC1(F)F (single isomer, unassigned) [125/126 DIAST-1]	100 to 1000	> 1000	9
O[C@H]1c2c(C(F)(F)F)nn([C@@H]3C[C@@H]4[C@H](C3)C4(F)F)c2CC1(F)F (single isomer, unassigned) [125/126 DIAST-2]	100 to 1000	> 1000	5
O[C@H]1c2c(C(F)(F)F)nn(CCCOC(F)(F)F)c2[C@@H](F)CC1(F)F (single isomer, unassigned) [129/130 DIAST-1]	100 to 1000	> 1000	18
O[C@H]1c2c(C(F)(F)F)nn(CCCOC(F)(F)F)c2[C@H](F)CC1(F)F (single isomer, unassigned) [129/130 DIAST-2]	100 to 1000	> 1000	17
O[C@H]1c2c(C(F)(F)F)nn([C@H]3CCCC(F)(F)C3)c2[C@@H](F)[C@H]1F (single isomer, unassigned) [136/137 DIAST-1]	< 100	> 1000	4
O[C@H]1c2c(C(F)(F)F)nn([C@@H]3CCCC(F)(F)C3)c2[C@@H](F)[C@H]1F (single isomer, unassigned) [136/137 DIAST-2]	< 100	100 to 1000	7
O[C@H]1c2c(C(F)(F)F)nn([C@@H]3CC[C@@H](F)[C@@H](F)C3)c2[C@@H](F)[C@H]1F (single isomer, unassigned) [141/142 DIAST-1]	100 to 1000	100 to 1000	4
O[C@H]1c2c(C(F)(F)F)nn([C@H]3CC[C@H](F)[C@H](F)C3)c2[C@@H](F)[C@H]1F (single isomer, unassigned) [141/142 DIAST-2]	100 to 1000	100 to 1000	3
O=S1(=O)CC(Cn2nc(C(F)(F)F)c3c2[C@H](F)C(F)(F)[C@H]3O)C1 (single isomer, unassigned) [144/145 DIAST-1]	100 to 1000	> 1000	3
O=S1(=O)CC(Cn2nc(C(F)(F)F)c3c2[C@@H](F)C(F)(F)[C@H]3O)C1 (single isomer, unassigned) [144/145 DIAST-2]	100 to 1000	100 to 1000	3
O[C@H]1c2c(C(F)(F)F)nn([C@@H]3C[C@@H](F)[C@@H](F)[C@@H](F)C3)c2[C@H](F)C1(F)F (single isomer, unassigned) [146/147 DIAST-1]	< 100	< 100	5
O[C@H]1c2c(C(F)(F)F)nn([C@@H]3C[C@@H](F)[C@@H](F)[C@@H](F)C3)c2[C@@H](F)C1(F)F (single isomer, unassigned) [146/147 DIAST-2]	< 100	100 to 1000	8
CO[C@H](CCn1nc(C(F)(F)F)c2c1[C@H](F)C(F)(F)[C@H]2O)C(F)(F)F (single isomer, unassigned) [148/149 DIAST-1]	< 100	< 100	9
CO[C@H](CCn1nc(C(F)(F)F)c2c1[C@@H](F)C(F)(F)[C@H]2O)C(F)(F)F (single isomer, unassigned) [148/149 DIAST-2]	< 100	100 to 1000	12
O[C@H]1c2c(C(F)(F)F)nn([C@H]3CCO[C@@H](C(F)(F)F)C3)c2[C@@H](F)[C@H]1F (single isomer, unassigned) [150/151 DIAST-1]	100 to 1000	> 1000	5
O[C@H]1c2c(C(F)(F)F)nn(CCCC(F)(F)F)c2[C@@H](F)C1(F)F (single isomer, unassigned) [Example 123]	100 to 1000	> 1000	12
O[C@H]1c2c(C(F)(F)F)nn(CCCC(F)(F)F)c2[C@H](F)C1(F)F (single isomer, unassigned) [Example 124]	< 100	> 1000	11
O[C@H]1c2c(C(F)(F)F)nn(C3CC4(C3)CC(F)(F)C4)c2[C@@H](F)[C@@H]1F (single isomer, unassigned) [Example 134]	< 100	> 1000	13
